In patent publication US8901145B2, “Aminopyrimidine kinase inhibitors” (Jasco Pharmaceuticals, LLC, priority 2011, dated 2014):

Columns and labels:
Pim-1(h) = Pim-1(h) (Homo sapiens, UniProt P11309); experiment: Enzyme activity, ATP = Km, Pim-1(h); type: biochemical; conditions: 300 nM of compound, ATP concentration = Km
Pim-2(h) = Pim-2(h) (Homo sapiens, UniProt Q9P1W9); experiment: Enzyme activity, ATP = Km, Pim-2(h); type: biochemical; conditions: 300 nM of compound, ATP concentration = Km
KU812 = experiment: Cell proliferation inhibition (MTS), KU812; type: cell-based, human; conditions: KU812, 72 h
Description: (§1) All cells were cultured in the media supplemented with 10% FBS in the temperature of 37° C., 5% CO2 and 95% humidity. All culture media were purchased from GIBCO.
(§2) • 1. Cells were harvested respectively during the logarithmic growth period and counted with hemocytometer. Cell viability was over 98% by trypan blue exclusion. • 2. Dilute cells with respective medium to achieve 1.11×10^5 cells/mL for LNCaP cells, 2.22×10^5 cells/mL for KU812 cells, 5.56×10^4 cells/mL for Panc-1 cells. • 3. Add 90 μL cell suspensions to 96-well plate, the final cell densities are 1×10^4 cells/well for LNCaP cells, 2×10^4 cells/well for KU812 cells, and […] cells/well for Panc-1 cells, respectively. • 4. The next day, dilute the test article or positive drugs with DMSO or PBS. • 5. Dispense 10 μL drug solution in each well (triplicate for each drug concentration). • 6. The plates were cultured for another 72 hours, then measured using MTS assay. • 7. Prepare MTS/PMS solution immediately prior to use, pipet 20 μL of the mixture into each well of the 96 well assay plate containing 100 μL culture medium. (The final reaction volume is 120 μL). • 8. Incubate the plate for 1-4 hours at 37° C. in a humidified, 5% CO2 atmosphere. • 9. Record the absorbance at 490 nm using Synergy2 Microplate Reader. Data Analysis:
(§3) The software of GraphPad Prism version 5 was used to calculate IC50. […]

Panc-1 = experiment: Cell proliferation inhibition (MTS), Panc-1; type: cell-based, human; conditions: Panc-1, 72 h
Description: as §1, §2, §3

NCI-H929 = experiment: Cell proliferation inhibition (MTS), NCI-H929; type: cell-based, human; conditions: NCI-H929, 72 hours
Description: (§4) All cells were cultured in media supplemented with 10% FBS except for which are marked specially, in the temperature of 37° C., 5% CO2 and 95% humidity. All culture media were purchased from GIBCO (USA, IMDM Cat. 12200-036; RPMI Medium 1640 Cat. 31800-022; 2-mercaptoethanol Cat. 21985-023).
(§5) • 1. The cells were harvested respectively during the logarithmic growth period and counted with hemocytometer. The cell viability was over 98% by trypan blue exclusion. • 2. Cell concentrations were adjusted to 2.22×10^5 or 1.11×10^5 or 5.56×10^4 cells/mL with respective medium. • 3. 90 μL cell suspensions were added to 96-well plates (triplicates for each cell concentration), the final cell densities were 2×10^4 or 1×10^4 or 5×10^3 cells/well. The density of 5×10^3 cells/well was used for the first test. The appropriate cell density was determined and adjusted according to the results of the first test. • 4. The next day, test article or positive drugs were dissolved with DMSO as stock solution at the concentration of 20 mM. • 5. 10 μL drug solution was dispensed in each well (triplicate for each drug concentration). • 6. Plates were cultured for another 72 hours, then measured by means of MTS assay. • 7. MTS/PMS solution was prepared immediately prior to use. […] Absorbance at 490 nm was recorded using SpectraMAX Plus microplate spectrophotometer. […]

Pim-3(h) = Pim-3(h) (Homo sapiens, UniProt Q86V86); experiment: Enzyme activity, ATP = Km, Pim-3(h); type: biochemical; conditions: 300 nM of compound, ATP concentration = Km
CK2(h) = CK2(h) (Homo sapiens, UniProt P68400); experiment: Enzyme activity, ATP = Km, CK2(h); type: biochemical; conditions: 300 nM of compound, ATP concentration = Km
Chain of CK2(h) (P68400 whole entry): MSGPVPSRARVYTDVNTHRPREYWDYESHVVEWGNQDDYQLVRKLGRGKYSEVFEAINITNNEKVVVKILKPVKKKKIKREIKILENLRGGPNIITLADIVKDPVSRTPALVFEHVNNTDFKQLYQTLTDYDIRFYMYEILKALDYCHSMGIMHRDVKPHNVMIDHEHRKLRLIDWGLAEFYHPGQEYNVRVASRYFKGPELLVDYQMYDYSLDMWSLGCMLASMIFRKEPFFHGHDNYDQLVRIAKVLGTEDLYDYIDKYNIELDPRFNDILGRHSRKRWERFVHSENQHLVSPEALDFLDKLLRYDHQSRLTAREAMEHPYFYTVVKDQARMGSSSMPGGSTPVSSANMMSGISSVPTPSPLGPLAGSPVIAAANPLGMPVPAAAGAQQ
Chain of CK2(h) (P67870 whole entry partner): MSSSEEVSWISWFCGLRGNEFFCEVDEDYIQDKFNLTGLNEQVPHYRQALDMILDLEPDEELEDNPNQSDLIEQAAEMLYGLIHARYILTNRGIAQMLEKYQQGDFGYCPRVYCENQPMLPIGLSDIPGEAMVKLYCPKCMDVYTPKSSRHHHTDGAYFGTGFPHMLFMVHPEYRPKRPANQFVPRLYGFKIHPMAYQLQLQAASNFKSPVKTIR

CK1γ2(h) = CK1γ2(h) (Homo sapiens, UniProt P78368); experiment: Enzyme activity, ATP = Km, CK1γ2(h); type: biochemical; conditions: 300 nM of compound, ATP concentration = Km
Chain of CK1γ2(h) (P78368 whole entry): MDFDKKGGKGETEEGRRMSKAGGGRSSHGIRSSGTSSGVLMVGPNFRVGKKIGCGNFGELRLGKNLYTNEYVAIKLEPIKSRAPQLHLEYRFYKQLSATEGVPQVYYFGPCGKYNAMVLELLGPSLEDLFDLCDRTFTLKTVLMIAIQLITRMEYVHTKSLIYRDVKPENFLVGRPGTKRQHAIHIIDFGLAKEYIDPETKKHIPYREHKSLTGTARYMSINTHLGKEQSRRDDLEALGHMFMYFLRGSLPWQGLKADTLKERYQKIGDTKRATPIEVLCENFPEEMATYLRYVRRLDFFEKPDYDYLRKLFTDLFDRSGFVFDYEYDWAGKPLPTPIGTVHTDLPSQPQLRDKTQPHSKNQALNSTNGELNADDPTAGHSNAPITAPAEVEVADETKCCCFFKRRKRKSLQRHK

CK1(y) = experiment: Enzyme activity, ATP = Km, CK1(y); type: biochemical, yeast; conditions: 300 nM of compound, ATP concentration = Km
RPMI-8226 = experiment: Cell proliferation inhibition (MTS), RPMI-8226; type: cell-based, human; conditions: RPMI 8226, 72 hours
Description: as §4, §5

Chain of Pim-2(h) (Q9P1W9 whole entry): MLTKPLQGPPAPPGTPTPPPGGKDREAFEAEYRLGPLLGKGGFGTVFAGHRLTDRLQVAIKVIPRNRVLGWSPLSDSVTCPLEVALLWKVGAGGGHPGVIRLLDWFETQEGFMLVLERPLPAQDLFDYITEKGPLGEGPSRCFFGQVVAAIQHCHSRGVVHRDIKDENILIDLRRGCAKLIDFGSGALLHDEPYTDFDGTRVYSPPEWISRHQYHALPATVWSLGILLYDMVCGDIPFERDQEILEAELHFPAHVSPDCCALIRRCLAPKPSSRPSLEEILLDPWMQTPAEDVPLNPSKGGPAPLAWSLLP
Chain of Pim-1(h) (P11309 whole entry): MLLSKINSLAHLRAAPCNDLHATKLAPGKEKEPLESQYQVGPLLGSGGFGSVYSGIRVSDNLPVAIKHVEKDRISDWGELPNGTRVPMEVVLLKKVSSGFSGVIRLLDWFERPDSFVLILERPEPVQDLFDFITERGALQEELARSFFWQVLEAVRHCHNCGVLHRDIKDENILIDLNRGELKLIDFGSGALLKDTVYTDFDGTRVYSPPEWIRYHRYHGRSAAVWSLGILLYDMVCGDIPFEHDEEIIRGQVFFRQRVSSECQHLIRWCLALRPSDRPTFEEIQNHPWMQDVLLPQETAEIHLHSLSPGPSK

Percent Activity of Enzyme Pim-1(h) (Pim-1(h)): 115%
Percent Activity of Enzyme Pim-2(h) (Pim-2(h)): 108%
IC50 (Panc-1): > 30 µM
IC50 (NCI-H929): > 30 µM
Percent Activity of Enzyme Pim-3(h) (Pim-3(h)): 80%
Percent Activity of Enzyme CK2(h) (CK2(h)): 85%
Percent Activity of Enzyme CK1γ2(h) (CK1γ2(h)): 95%
Percent Activity of Enzyme CK1(y) (CK1(y)): 114%
IC50 (RPMI-8226): > 30 µM
Structure (SMILES): NCC1CCN(c2cc(/C=C3\SC(=O)NC3=O)ncn2)CC1 [Compound 11268]
IC50 (KU812): > 30 µM
